Measured values from publication PMC6240096, “A hPSC-based platform to discover gene-environment interactions that impact human β-cell and dopamine neuron survival” (Nature Communications, 2018).

Assays:
[1] = system: EndoC-βH1-Luc cells; test: Humanized NSG mice transplanted with EndoC-βH1-Luc cells; format: in vivo, human; conditions: 12 mg/kg
Description: LentiLuc-blast plasmid was constructed based on the LentiCas9-blast vector (Addgene, 52926). The luciferase gene was driven by a constitutively active EFS promoter. EndoC-βH1 cells were infected with the lentivirus followed by 4 days selection with 20 μg/ml blasticidin to create EndoC-βH1-Luc cells. Adult 6–8 week old female NSG immunodeficient mice (Jackson Laboratory) were transplanted with 5 × 10^5 EndoC-βH1-Luc cells to create a humanized mouse model. Baseline luminescent levels were obtained 5 days after transplantation. 12 mg/kg propargite or vehicle were then administrated for 5 days via intraperitoneal injection (the starting day referred to as day 0). In vivo imaging was performed on day 1, 3, and 5 with an Xtreme Optical and X-ray small animal imaging system. During the imaging, isoflurane was used for anesthesia. 2 mg/150 µl/25 g body weight luciferin potassium salt (Regis, 360223) was applied to each mouse. To generate EndoC-βH1-Luc cells carrying sgGSTT1 or sgGFP, EndoC-βH1-Luc cells were infected with the lentivirus carrying Cas9 and sgRNAs (sgGSTT1 or sgGFP), and purified with 2 days selection using 1 μg/ml puromycin. Adult 6–8-week-old female NSG-immunodeficient mice (Jackson Laboratory) were transplanted with 5 × 10^5 EndoC-βH1-Luc cells carrying sgGSTT1 or sgGFP (control). 12 mg/kg propargite or vehicle were administrated for 3 days via intraperitoneal injection, mice were then sacrificed at day 3. The xenografts were embedded in OCT. The tissue was then sectioned at 5 μm to detect cell death with TUNEL assays (In Situ Cell Death Detection Kit, TMR red, Sigma, 12156792910) and for immunohistochemistry staining analysis of β-cell marker INS to measure cell death rate in EndoC-βH1-Luc cells carrying sgGSTT1 or sgGFP.

[2] = system: INS-GFP+ cells; test: RNA-seq of INS-GFP+ cells; format: cell-based, human; conditions: 1.6 µM propargite-treated INS-GFP+ cells
Description: The INS-GFP^+ cells were sorted and RNA from the sorted cells was extracted with Absolutely RNA Nanoprep kit (Agilent Technologies, 400753). The RNA quality was validated with a bioanalyzer (Agilent). The cDNA libraries were synthesized using the TruSeq RNA Sample Preparation kit (Illumina) and sequenced in single-read with the HiSeq2000/1000 sequencer (Illumina) at Weill Cornell Genomics Resources Core Facility. The reads were aligned to the human hg19 reference genome with Tophat2[48]. Gene expression data were analyzed with Cufflinks[49]. To generate heat maps displaying the differential gene expression patterns of different samples, the RPKM values were normalized per gene over all samples. The heat maps were then generated by Heatmap.2 in the R plots package. David functional annotation tool[50] was used for gene ontology analysis and Ingenuity Pathway Analysis tool was used for pathway analysis.

Substance: 2-(4-tert-butylphenoxy)-cyclohexyl prop-2-yne-1-sulfonate [propargite]
- cell death rate (TUNEL) of EndoC-βH1-Luc cells carrying sgGSTT1 vs sgGFP ([1]; day 3): higher cell death rate
- luciferase signal of EndoC-βH1-Luc cells ([1]; day 3): slower rate increase
- luciferase signal of EndoC-βH1-Luc cells ([1]; day 5): marked decrease
- fold-change of upregulated DNA damage genes (DDIT3, GADD45A) [2]: > 3
